Like-named read-outs stand apart in the source and are kept apart here.
What was measured:
Type in all cases: cell-based
Escherichia coli = test: MIC measurement in agar medium (dilution test), Coli; settings: potentiator alone
Text: Inhibitory minimum concentration measurement tests are made in a solid agar medium according to international standards in force (CLSI M7-A9 Jan 12 standards): dispersion of the compounds to be tested in a Mueller Hinton gelose. An adaptation relating to the hydrophobicity of compounds and compositions is however necessary to disperse them in the medium: dilution of the compounds in a solvent. The compounds and compositions incorporated in the agar medium can be diluted beforehand in one or more solvents (Tween® 80 diluted with water, Tween® 80 diluted with […], DMSO diluted with water). The strains are deposited onto the agar surface with a steers apparatus. In the examples, different dissolution methods for products are tested in parallel to circumvent the problems of water/solvent distribution coefficient of the molecules (antimicrobial and potentiator) whereas the bacteria grow only in the aqueous phase. The technical requirement will not intervene in in vivo tests. The same dilution methods can be implemented in a liquid medium (microplates and tubes). The same methodology is implemented with fungi. […] MIC measurement: the minimum inhibitory concentration measurement tests are made in an agar solid medium according to international standards in force (CLSI standards), according to the previously defined protocol. […] The booster contribution as compared with the MIC of the antibiotic alone is expressed in a (MIC ATB)/(MIC ATB+booster) ratio. Thereby, gains are defined: […]

[1] = system: bacterial strains (Pyo, Coli, Staph); test: MIC measurement in agar medium, tested bacterial strains overall; settings: compound alone, depending on the strains
Text: Inhibitory minimum concentration measurement tests are made in a solid agar medium according to international standards in force (CLSI M7-A9 Jan 12 standards): dispersion of the compounds to be tested in a Mueller Hinton gelose. An adaptation relating to the hydrophobicity of compounds and compositions is however necessary to disperse them in the medium: dilution of the compounds in a solvent. The compounds and compositions incorporated in the agar medium can be diluted beforehand in one or more solvents (Tween® 80 diluted with water, Tween® 80 diluted with […], DMSO diluted with water). The strains are deposited onto the agar surface with a steers apparatus. In the examples, different dissolution methods for products are tested in parallel to circumvent the problems of water/solvent distribution coefficient of the molecules (antimicrobial and potentiator) whereas the bacteria grow only in the aqueous phase. The technical requirement will not intervene in in vivo tests. The same dilution methods can be implemented in a liquid medium (microplates and tubes). The same methodology is implemented with fungi. MIC measurement: the minimum inhibitory concentration measurement tests are made in an agar solid medium according to international standards in force (CLSI standards), according to the previously defined protocol. […] [table]

Pseudomonas Strain 08131 = test: Etest, Pseudomonas Strain 08131; settings: for MIC: Pseudomonas, STRAIN08131, Strain 08131, read-out: MIC of Pipera tazo; for MIC of Meropenem: Strain 08131
Text: (§1) The corresponding tests are made based on the usual MIC test: the Etest® (Biomerieux) strip is deposited onto the surface of a seeded agar medium in which the booster has been incorporated. This test enables solvent effect risks, that is a possible interaction with the solvent used in vitro, to be minimised.
(§2) The control corresponds to the test made without cineol. A control is made in each solvent tested: distilled water, Tween/water and DMSO.
(§3) ED control=antibiotic alone in distilled water
(§4) DMSO control=antibiotic alone in DMSO
(§5) TE control=antibiotic alone in Tween® 80

MRSA 10178 = test: Etest, staphylococci MRSA 10178; settings: MRSA 10178
Text: as §1, §2, §3, §4, §5

MSSA 8237 = test: Etest, staphylococci MSSA 8237; settings: for MIC: Staphylococcus aureus, MSSA
Text: as §1, §2, §3, §4, §5

[2] = system: Strain 09003, methicillin resistant S. aureus (MRSA); test: Resistance test (resistant mutants), Strain 09003; settings: MRSA, text after Table 15
Method: After 48 h incubation, the presence or absence of colonies likely to be resistant mutants is observed.
ED control or DMSO=only distilled water or DMSO is added
Ciprofloxacine DMSO: addition of Ciprofloxacine in DMSO

[3] = booster 1 mg/L in agar, Tween/water
[4] = booster 4 mg/L in agar, Tween/water
[5] = booster 16 mg/L in agar, Tween/water
[6] = MSSA 8237, booster 1 mg/L in agar, DMSO
[7] = MSSA 8237, booster 1 mg/L in agar, Tween/water
[8] = MSSA 8237, booster 4 mg/L in agar, DMSO
[9] = MSSA 8237, booster 4 mg/L in agar, Tween/water
[10] = MSSA 8237, booster 16 mg/L in agar, DMSO
[11] = MSSA 8237, booster 16 mg/L in agar, Tween/water

O=C(OCc1ccccc1)c1ccccc1 [BB, benzyl benzoate]
MIC 50 (Escherichia coli; solvent DMSO): >1% | MIC 90 (Escherichia coli; solvent DMSO): >1% | MIC 50 (Escherichia coli; solvent Tween/prop glyc): >1% | MIC 90 (Escherichia coli; solvent Tween/prop glyc): >1% | MIC 50 (Escherichia coli; solvent Tween/water): >1% | MIC 90 (Escherichia coli; solvent Tween/water): >1% | MIC 50 (Escherichia coli; solvent water/water): >1% | MIC 90 (Escherichia coli; solvent water/water): >1% | MIC [1]: > 10000 µg/mL | MIC (Pseudomonas Strain 08131; booster 1 mg/L in agar, DMSO): 6 µg/mL | MIC (Pseudomonas Strain 08131; [3]): 8 µg/mL | MIC (Pseudomonas Strain 08131; booster 4 mg/L in agar, DMSO): 8 µg/mL | MIC (Pseudomonas Strain 08131; [4]): 6 µg/mL | MIC (Pseudomonas Strain 08131; booster 16 mg/L in agar, DMSO): 6 µg/mL | MIC (Pseudomonas Strain 08131; [5]): 4 µg/mL | MIC of Meropenem (Pseudomonas Strain 08131; booster 1 mg/L in agar, DMSO): 1.5 µg/mL | MIC of Meropenem (Pseudomonas Strain 08131; [3]): 3 µg/mL | MIC of Meropenem (Pseudomonas Strain 08131; booster 4 mg/L in agar, DMSO): 2 µg/mL | MIC of Meropenem (Pseudomonas Strain 08131; [4]): 3 µg/mL | MIC of Meropenem (Pseudomonas Strain 08131; booster 16 mg/L in agar, DMSO): 2 µg/mL | MIC of Meropenem (Pseudomonas Strain 08131; [5]): 1 µg/mL | MIC of Cefoxitine (MRSA 10178; booster 1 mg/L in agar, DMSO): 3 µg/mL | MIC of Tigecycline (MRSA 10178; booster 1 mg/L in agar, DMSO): 0.047 µg/mL | MIC of Cefoxitine (MRSA 10178; [3]): 3 µg/mL | MIC of Tigecycline (MRSA 10178; [3]): 0.094 µg/mL | MIC of Cefoxitine (MRSA 10178; booster 4 mg/L in agar, DMSO): 2 µg/mL | MIC of Tigecycline (MRSA 10178; booster 4 mg/L in agar, DMSO): 0.125 µg/mL | MIC of Cefoxitine (MRSA 10178; [4]): 2 µg/mL | MIC of Tigecycline (MRSA 10178; [4]): 0.25 µg/mL | MIC of Cefoxitine (MRSA 10178; booster 16 mg/L in agar, DMSO): 1 µg/mL | MIC of Tigecycline (MRSA 10178; booster 16 mg/L in agar, DMSO): 0.032 µg/mL | MIC of Cefoxitine (MRSA 10178; [5]): 1.5 µg/mL | MIC of Tigecycline (MRSA 10178; [5]): 0.047 µg/mL | MIC of Cefoxitine (MSSA 8237; [6]): 2 µg/mL | MIC of Meropenem (MSSA 8237; [6]): 0.25 µg/mL | MIC of Penicillin G (MSSA 8237; [6]): 0.38 µg/mL | MIC of Cefoxitine (MSSA 8237; [7]): 3 µg/mL | MIC of Meropenem (MSSA 8237; [7]): 0.19 µg/mL | MIC of Penicillin G (MSSA 8237; [7]): 0.25 µg/mL | MIC of Cefoxitine (MSSA 8237; [8]): 3 µg/mL | MIC of Meropenem (MSSA 8237; [8]): 0.19 µg/mL | MIC of Penicillin G (MSSA 8237; [8]): 0.25 µg/mL | MIC of Cefoxitine (MSSA 8237; [9]): 3 µg/mL | MIC of Meropenem (MSSA 8237; [9]): 0.125 µg/mL | MIC of Penicillin G (MSSA 8237; [9]): 0.19 µg/mL | MIC of Cefoxitine (MSSA 8237; [10]): 3 µg/mL | MIC of Meropenem (MSSA 8237; [10]): 0.19 µg/mL | MIC of Penicillin G (MSSA 8237; [10]): 0.19 µg/mL | MIC of Cefoxitine (MSSA 8237; [11]): 3 µg/mL | MIC of Meropenem (MSSA 8237; [11]): 0.064 µg/mL | MIC of Penicillin G (MSSA 8237; [11]): 0.125 µg/mL | MIC (MSSA 8237; MSSA 8237, booster 1 mg/L in agar, DMSO, read-out: MIC of Clindamycine): 0.047 µg/mL | MIC (MSSA 8237; MSSA 8237, booster 1 mg/L in agar, Tween/water, read-out: MIC of Clindamycine): 0.047 µg/mL | MIC (MSSA 8237; MSSA 8237, booster 4 mg/L in agar, DMSO, read-out: MIC of Clindamycine): 0.047 µg/mL | MIC (MSSA 8237; MSSA 8237, booster 4 mg/L in agar, Tween/water, read-out: MIC of Clindamycine): 0.047 µg/mL | MIC (MSSA 8237; MSSA 8237, booster 16 mg/L in agar, DMSO, read-out: MIC of Clindamycine): 0.047 µg/mL | MIC (MSSA 8237; MSSA 8237, booster 16 mg/L in agar, Tween/water, read-out: MIC of Clindamycine): 0.094 µg/mL | MIC (MSSA 8237; read-out: MIC of Pipera tazo, MSSA 8237, booster 1 mg/L in agar, DMSO): 1 µg/mL | MIC (MSSA 8237; read-out: MIC of Pipera tazo, MSSA 8237, booster 1 mg/L in agar, Tween/water): 1 µg/mL | MIC (MSSA 8237; read-out: MIC of Pipera tazo, MSSA 8237, booster 4 mg/L in agar, DMSO): 1 µg/mL | MIC (MSSA 8237; read-out: MIC of Pipera tazo, MSSA 8237, booster 4 mg/L in agar, Tween/water): 1 µg/mL | MIC (MSSA 8237; read-out: MIC of Pipera tazo, MSSA 8237, booster 16 mg/L in agar, DMSO): 0.75 µg/mL | MIC (MSSA 8237; read-out: MIC of Pipera tazo, MSSA 8237, booster 16 mg/L in agar, Tween/water): 0.75 µg/mL | occurrence of mutants on addition of the compound to ciprofloxacine [2]: does not cause the occurrence of mutants any longer

Source: patent US10758620B2, “Potentiated antimicrobial agents” (SEPTEOS, priority 2014, dated 2020)
